Data: patent publication US6008245A, “Sulfonamide-substituted benzopyran derivatives, processes for their preparation, their use as a medicament, and pharmaceutical preparations comprising them” (priority 1997, dated 1999)

Target: T1, human IsK protein (UniProt P15382+P70057)
T1 construct: expressed in transfected cells; host or cells: Xenopus laevis oocytes injected with in vitro synthesized IsK RNA
Test: cell-based
Conditions: human IsK expressed in Xenopus oocytes; voltage jumps to -10 mV lasting 15 s; pH 7.5; room temperature; Hill equation

Q: With CC1(C)Oc2ccc(OCCCC(F)(F)F)cc2[C@H](NS(C)(=O)=O)[C@H]1O [Example 23a, (3R,4S)-N-[3-Hydroxy-2,2-dimethyl-6-(4,4,4-trifluoro-butoxy)-chroman-4-yl]-methanesulfonamide] as the compound, how does the IC50 read?
A: The IC50 was 1700 nM.

Q: For CCCCN([C@@H]1c2cc(OCc3ccccc3)ccc2OC(C)(C)[C@H]1O)S(C)(=O)=O (racemic) [Example 10, (±)-trans-N-(6-Benzyloxy-3-hydroxy-2,2-dimethylchroman-4-yl)-N-butyl-methanesulfonamide], which IC50 is on record?
A: Its IC50 is 400 nM.

Q: With CCCOc1ccc2c(c1)C(N(C)S(C)(=O)=O)=CC(C)(C)O2 [Example 9, N-(6-Propoxy-2,2-dimethyl-2H-chromen-4-yl)-N-methyl-methanesulfonamide] as the compound, how does the IC50 read?
A: The IC50 was 2600 nM.

Q: For COC(=O)CN([C@@H]1c2cc(OCc3ccccc3)ccc2OC(C)(C)[C@H]1O)S(C)(=O)=O (racemic) [Example 12, Methyl (±)-trans-[(6-benzyloxy-3-hydroxy-2,2-dimethylchroman-4-yl)-methanesulfonylamino]acetate], which IC50 is on record?
A: Its IC50 is 800 nM.

Q: With CCCCOc1ccc2c(c1)C(N(C)S(C)(=O)=O)=CC(C)(C)O2 [Example 7, N-(6-Butoxy-2,2-dimethyl-2H-chromen-4-yl)-N-methyl-methanesulfonamide] as the compound, how does the IC50 read?
A: The IC50 was 1600 nM.

Q: For CN(C1=CC(C)(C)Oc2ccc(OCc3ccccc3)cc21)S(C)(=O)=O [Example 4, N-(6-Benzyloxy-2,2-dimethyl-2H-chromen-4-yl)-N-methyl-methanesulfonamide], which IC50 is on record?
A: Its IC50 is 1600 nM.

Q: For CCCCN(C1=CC(C)(C)Oc2ccc(OCc3ccccc3)cc21)S(C)(=O)=O [Example 11], which IC50 is on record?
A: The IC50 was 1600 nM.

Q: With CCCCOc1ccc2c(c1)[C@@H](N(C)S(C)(=O)=O)[C@H](O)C(C)(C)O2 (racemic) [Example 5, (±)-trans-N-(6-Butoxy-3-hydroxy-2,2-dimethylchroman-4-yl)-N-methyl-methanesulfonamide] as the compound, how does the IC50 read?
A: Its IC50 is 250 nM.

Q: With CCCCOc1ccc2c(c1)[C@@H](N(C)S(C)(=O)=O)[C@H](O)C(C)(C)O2 [Example 16, (3S, 4R)-(-)-N-(6-Butoxy-3-hydroxy-2,2-dimethylchroman-4-yl)-N-methyl-methanesulfonamide] as the compound, how does the IC50 read?
A: Its IC50 is 400 nM.

Q: Which IC50 does the source give for CO[C@H]1[C@H](N(C)S(C)(=O)=O)c2cc(OCc3ccccc3)ccc2OC1(C)C (racemic) [Example 3, (±)-trans-N-(6-Benzyloxy-3-methoxy-2,2-dimethylchroman-4-yl)-N-methyl-methanesulfonamide] here?
A: The IC50 was 6500 nM.

Q: For CC(=O)O[C@H]1[C@H](N(C)S(C)(=O)=O)c2cc(OCc3ccccc3)ccc2OC1(C)C (racemic) [Example 2, (±)-trans-N-(6-Benzyloxy-3-acetoxy-2,2-dimethylchroman-4-yl)-N-methyl-methanesulfonamide], which IC50 is on record?
A: The IC50 was 13000 nM.

Q: Which IC50 does the source give for CC(=O)O[C@H]1[C@H](N(C)S(C)(=O)=O)c2cc(OCCCC(F)(F)F)ccc2OC1(C)C (racemic) [Example 21, (±)-trans-N-[3-Acetoxy-6-(4,4,4-trifluorobutoxy)-2,2-dimethylchroman-4-yl]-N-methyl-methanesulfonamide] here?
A: The IC50 was roughly 10000 nM.

Q: With CCCCOc1ccc2c(c1)[C@@H](N(C)S(C)(=O)=O)[C@H](OC(C)=O)C(C)(C)O2 (racemic) [Example 6, (±)-trans-N-(3-Acetoxy-6-butoxy-2,2-dimethylchroman-4-yl)-N-methyl-methanesulfonamide] as the compound, how does the IC50 read?
A: Its IC50 is greater than 10000 nM.

Q: For CCS(=O)(=O)N(C)[C@H]1c2cc(OCCCC(F)(F)F)ccc2OC(C)(C)[C@@H]1O [Example 18, (3R, 4S)-(+)-N-[-3-Hydroxy-2,2-dimethyl-6-(4,4,4-trifluorobutoxy)chroman-4-yl]-N-methyl-ethanesulfonamide], which IC50 is on record?
A: The IC50 was 100 nM.

Q: With CCS(=O)(=O)N(C)[C@@H]1c2cc(OCc3ccccc3)ccc2OC(C)(C)[C@H]1O [Example 17, (3S, 4R)-(-)-N-(6-Benzyloxy-3-hydroxy-2,2-dimethylchroman-4-yl)-N-methyl-ethanesulfonamide] as the compound, how does the IC50 read?
A: Its IC50 is 400 nM.

Q: With CN([C@@H]1c2cc(OCc3ccccc3)ccc2OC(C)(C)[C@H]1O)S(C)(=O)=O (racemic) [Example 1, (±)-trans-N-(6-Benzyloxy-3-hydroxy-2,2-dimethylchroman-4-yl)-N-methylmethanesulfonamide] as the compound, how does the IC50 read?
A: The IC50 was 200 nM.

Q: With CCCCOc1ccc2c(c1)C(N(CC)S(C)(=O)=O)=CC(C)(C)O2 [Example 15, N-(6-Butoxy-2,2-dimethyl-2H-chromen-4-yl)-N-ethyl-methanesulfonamide] as the compound, how does the IC50 read?
A: Its IC50 is 1300 nM.

Q: With CN(C1=CC(C)(C)Oc2ccc(OCCCC(F)(F)F)cc21)S(C)(=O)=O [Example 22, N-[6-(4,4,4-Trifluorobutoxy)-2,2-dimethyl-2H-chromen-4-yl]-N-methyl-methanesulfonamide] as the compound, how does the IC50 read?
A: Its IC50 is 600 nM.

Q: Which IC50 does the source give for CCCCOc1ccc2c(c1)[C@@H](N(CC)S(C)(=O)=O)[C@H](O)C(C)(C)O2 (racemic) [Example 14, (±)-trans-N-(6-Butoxy-3-hydroxy-2,2-dimethylchroman-4-yl)-N-ethyl-methanesulfonamide] here?
A: Its IC50 is 200 nM.

System: K+ (ATP) channel
Test: not given
Conditions: known compounds; cited from earlier work

Q: For CC1(C)Oc2ccc(C#N)cc2[C@@H](N2CCCC2=O)[C@@H]1O (relative stereo) [cromakalim], which “action on ATP-sensitive K+ channels” value is on record?
A: The value was “openers of ATP-sensitive K^+ channels”.

System: IKs
Test: not given
Conditions: cited from earlier work

Q: With CN1CCN(CCCCN2C(=O)CN(/N=C/c3ccc(-c4ccc(Cl)cc4)o3)C2=O)CC1 [azimilide] as the compound, how does the “blocking action on the IKs” value read?
A: The value was “blocking action on the IKs”.

System: IKr
Test: not given
Conditions: class III antiarrhythmics; cited from earlier work

Q: With CC(C)NC[C@@H](O)c1ccc(NS(C)(=O)=O)cc1 [d-sotalol] as the compound, how does the IKr block read?
A: Its IKr block is “block IKr predominantly or exclusively”.
